Data on four molecules can be found in patent US12582604B2, “Stable solid dispersion of a B-RAF kinase dimer inhibitor, methods of preparation, and uses therefor” (BEIGENE, LTD., priority 2019, dated 2026).

Series [1] is described as follows: Solubility measurement (shaking 200 rpm at 25° C., HPLC). It counts as physicochemical.
A short description of series [2]: Hygroscopicity by dynamic vapor sorption (DVS). The format is physicochemical. As to conditions: for Hygroscopicity (in words): DVS, 80% RH.
Series [3] in a line: Long-term and accelerated stability studies (impurities, optical purity, XRPD, water content). It counts as physicochemical. The procedure:
Chiral purity and polymorph results had no changes when stored at 25° C./60% RH for up to 24 months.

Series [4] can be described thus: Pharmacokinetic comparison of Forms A-H in rats (Example 14). The format is in vivo. From the text: Pharmacokinetic Comparison of Form a, B, C, D, E, F, G and H in Rats
(§1) Powder of Form A with particle sizes of D90=62.4 μm after micronization. The material content (purity) was not less than 98.0%.
Powder of Form B with particle sizes of D90=69.9 μm, D10=3.5 um, […] after micronization. The material content (purity) was not less than 98.0%.
Powders of Forms C, D, E, F, G and H with particle sizes of D90<600 μm after micronization. The material content (purity) was not less than 98.0%.
Rats, male and female, were used in this study.
An appropriate amount of each substance was weighted and was dispersed in 0.5% sodium carboxymethyl cellulose. A suspension was prepared at the desired concentration of Compound 1 for each substance. All the doses and concentrations of Compound 1 were calculated with freebase in this study.
(§2) The dosing solutions were freshly prepared prior to dose administration. The actual body weights and actual volume injected were recorded accordingly. The rats were fasted overnight and were allowed to intake food four hours after dosing. Each suspension was administrated orally to rats at a dose ranged from 0.5 to 5 mg/kg. Blood samples (˜1.0 mL) were collected at pre-dose and at different times up to 36 hours post-dosing via cephalic vein plexus. Whole blood was processed by centrifugation and plasma samples were collected and kept at freezer prior to analysis. Plasma samples were processed by protein precipitation. Concentrations of Compound 1 in the plasma samples were determined using a validated liquid chromatography-tandem mass spectrometry (LC-MS/MS) method. The plasma concentration-time data were analyzed using a non-compartmental model using Pharsight WinNonlin.

Series [5] in a line: Pharmacokinetic comparison of Form A and Form F in dogs (Example 15). It counts as in vivo, Beagle dogs. As to conditions: for half-life: read-out: T½ (converted). The method, then: Pharmacokinetic Comparison of Form A and Form F in Dogs
as §1
Powder of Form F with particle sizes of D90<200 μm after micronization. The material content (purity) was not less than 98.0%.
Beagle dogs, male and female, were used in this study.
An appropriate amount of each substance was weighed and was disperse in 0.5% sodium carboxymethyl cellulose. A suspension was prepared at the desired concentration of Compound 1 for each substance. All the doses and concentrations of Compound 1 were calculated with freebase in this study.
as §2, with “dogs” for “rats”

Series [6] in a line: Long-term and accelerated stability studies (impurities, optical purity, XRPD, water content). As to conditions: for Total impurities T0: initial. It counts as physicochemical.
The nature of series [7]: Pharmacokinetic comparison of Forms A-H in rats (Example 14). It counts as in vivo. The note with it: rat, plasma.
Series [8] concerns RAF family of serine/threonine kinases. As to conditions: especially against BRAF/CRAF dimers; cited from earlier work.
The mark [9] stands for this setting: 25° C./60% RH up to 24 months and 40° C./75% RH up to 6 months.
Where [10] appears, read: both sexes, beagle, dog, plasma, 0.5 mg/kg, 0.5 mpk IV.
Where [11] appears, read: both sexes, beagle, dog, plasma, 5 mg/kg, 5 mpk PO.
[12] abbreviates: both sexes, iv, 1 mg/kg, 1 mpk IV.

Converted amounts (≈) assume the structure as drawn. “Also recorded” adds a separate entry of the source. Some results are limits rather than exact numbers.

For the molecule `O=C1CCc2c(Oc3ccc4c(c3)[C@H]3[C@H](NC(=O)N[C@@H]5[C@H]6Oc7ccc(Oc8ccnc9c8CCC(=O)N9)cc7[C@@H]56)[C@H]3O4)ccnc2N1` [Impurity-1], in series [1] (water and other common recrystallization solvents), the “Solubility (in words)” value was “very low solubilities”.
In general, solubility refers to the concentration that dissolves in the medium under given conditions. In general, AUC(0-t) refers to exposure summed from dosing to a finite time, without extrapolation to infinity. Read a high AUC(0-t) as high exposure. The clearance is the volume of plasma or blood freed of the substance per unit of time. Broadly, the Cmax is the maximum level reached in the sampled fluid or tissue. Regarding `O=C1CCc2c(Oc3ccc4c(c3)[C@H]3[C@H](NC(=O)Nc5cc(F)c(F)cc5F)[C@H]3O4)ccnc2N1` [Form A, 1-((1S,1aS,6bS)-5-((7-oxo-5,6,7,8-tetrahydro-1,8-naphthyridin-4-yl)oxy)-1a,6b-dihydro-1H-cyclopropa[b]benzofuran-1-yl)-3-(2,4,5-trifluorophenyl)urea], the solubility is 20 µg/mL (≈ 41.5 µM) in series [1] (0.1N HCl, simulated gastric fluid); 960 µg/mL (≈ 1990 µM) in series [1] (5% HTAB, aqueous with cosolvent or surfactant or cyclodextrin); less than 0.1 µg/mL in series [1] (5% Pluronic F68, aqueous with cosolvent or surfactant or cyclodextrin); 1000 µg/mL (≈ 2070 µM) in series [1] (5% SLS, aqueous with cosolvent or surfactant or cyclodextrin); 550 µg/mL (≈ 1140 µM) in series [1] (20% hydroxypropyl-β-cyclodextrin (HP-β-CD), aqueous with cosolvent or surfactant or cyclodextrin); 550 µg/mL (≈ 1140 µM) in series [1] (20% sulfobutyl ether-β-cyclodextrin (SBE-β-CD), aqueous with cosolvent or surfactant or cyclodextrin). The solubility in series [1] (n-heptane, organic solvent or mixture) is less than 0.1 µg/mL; in series [1] (pH 1.2 buffer solution, pH 1.2, simulated gastric fluid), 15 µg/mL (≈ 31.1 µM); in series [1] (pH 4.5 buffer, pH 4.5, aqueous buffer), less than 0.1 µg/mL; in series [1] (pH 6.8 buffer, pH 6.8, aqueous buffer), less than 0.1 µg/mL; in series [1] (pH 7.4 buffer solution, pH 7.4, aqueous buffer), less than 0.1 µg/mL; in series [1] (water), less than 0.1 µg/mL. In addition, the solubility at 2 h in series [1] (DMA, organic solvent or mixture) is more than 372000 µg/mL; in series [1] (DMSO, organic solvent or mixture), more than 95400 µg/mL. Besides, in series [2], the “Hygroscopicity (in words)” value was “moderately hygroscopic”. Further, the “Crystalline form after DVS” value in series [2] (after dynamic vapor sorption) was “changed to the Crystalline Form A*”. For the same molecule, the “Time at which solid form is still stable by XRPD” value in series [3] (25° C./60% RH) and in series [6] (40° C./75% RH) was not below 6 months each time. In series [3] (setting [9]), the Optical purity change entry was “no optical purity changes”. The F in series [4] (1 mpk IV (reference)) is 100%; in series [5] (0.5 mpk IV (reference)) it was 100%; in series [5] (5 mpk PO), 34%. In addition, the AUC(0-t) stood at 5716 ng·h/mL in series [4] (5 mpk PO, 5 mg/kg); 6870 ng·h/mL in series [5] (setting [10]); 23400 ng·h/mL in series [5] (setting [11]); 5330 ng·h/mL in series [7] (setting [12]). Further, the half-life is 2.94 h in series [4] (both sexes, rat, plasma, po, 5 mg/kg, 5 mpk PO); 11 h in series [5] (setting [10]); 11 h in series [5] (setting [11]); 4.2 h in series [7] (setting [12]). In addition, the clearance in series [5] (setting [10]) is 1.22 mL/min/kg; in series [7] (both sexes, 1 mg/kg, 1 mpk IV), 3.15 mL/min/kg. The Vd in series [5] (both sexes, beagle, dog, plasma, 0.5 mg/kg, 0.5 mpk IV, read-out: Vdss) was 0.97 L/kg; in series [7] (both sexes, 1 mg/kg, 1 mpk IV, read-out: Vdss) it was 1.15 L/kg. In series [5] (setting [11]), this molecule returned a Cmax of 1120 ng/mL. Also, the “Storage time without obvious decomposition” value in series [6] is listed as “over 12 months”. Also, the “Total impurities T0” value in series [6] (25° C./60% RH study) and in series [6] (40° C./75% RH study) was 1.0% each time. Further, in series [6] (setting [9]), the Chemical purity change result is given as “no significant chemical purity change”. Moreover, the “Crystalline form change by XRPD” value in series [6] (25° C./60% RH, 12 months) is given as “changed to the crystalline form; also recorded: from Form A to Form A*”. Moreover, the “Total impurities T24” value in series [6] (25° C./60% RH, 24 months) turned out to be 1.0%. The “Total impurities T6” value in series [6] (40° C./75% RH, 6 months) turned out to be 1.0%.
On to `O=C1CCc2c(Oc3ccc4c(c3)[C@H]3[C@H](NC(=O)Nc5cc(F)c(F)cc5F)[C@H]3O4)ccnc2N1` [Form B, 1-((1S,1aS,6bS)-5-((7-oxo-5,6,7,8-tetrahydro-1,8-naphthyridin-4-yl)oxy)-1a,6b-dihydro-1H-cyclopropa[b]benzofuran-1-yl)-3-(2,4,5-trifluorophenyl)urea], for which, in series [4] (5 mpk PO, 5 mg/kg), the AUC(0-t) was 13134 ng·h/mL and the T1/2 was determined as 2.47 h. For the same molecule, in series [4] (PO), the “Cmax and AUC0-inf compared with the amorphous solid dispersions (in words)” value is recorded as “lower”; the “Cmax, AUC0-inf and F(%) compared to crystalline Form A (in words)” value was “higher”. Further, the “Time at which solid form is still stable by XRPD (no crystalline peaks)” value in series [6] (40° C./75% RH) was not below 14 days.
Usually bioavailability stands for the share of a dose that reaches the circulation, judged against a reference dose that is usually intravenous. Higher therefore signals good availability. Regarding `O=C1CCc2c(Oc3ccc4c(c3)[C@H]3[C@H](NC(=O)Nc5cc(F)c(F)cc5F)[C@H]3O4)ccnc2N1` [Compound 1, 1-((1S,1aS,6bS)-5-((7-oxo-5,6,7,8-tetrahydro-1,8-naphthyridin-4-yl)oxy)-1a,6b-dihydro-1H-cyclopropa[b]benzofuran-1-yl)-3-(2,4,5-trifluorophenyl)urea], the “Solubility (in words)” value in series [1] (crystalline or neat amorphous form, water, 0.1 HCl, buffer solutions of different pH) is on record as “poor solubility”. The “Weight gain (water gain) by DVS” value in series [2] (80% relative humidity) stood at 4.96%. In series [2], the “Hygroscopicity (in words)” value is reported as “moderately hygroscopic”. The Chemical purity change entry in series [6] (crystalline form, 25° C./60% RH up to 12 months) is reported as “does not show any significant chemical purity change”. In addition, the Optical purity change result in series [6] (crystalline form, 25° C./60% RH up to 12 months and 40° C./75% RH up to 6 months) is given as “no optical purity changes”. In series [7] (po, 5 mpk, crystalline form, preliminary DMPK studies), the bioavailability is approximately 20%. The “Inhibitory activity (in words)” value in series [8] was “potent inhibitory activity”.
